Results taken from article PMC5983544, “Muscarinic M5 receptors modulate ethanol seeking in rats” (Neuropsychopharmacology, 2018).

Tests used:
rat M5 mAChR [1] = molecular target: T1, rat M5 mAChR (Rattus norvegicus, UniProt P08911); assay: [3H]NMS equilibrium binding in whole CHO-rM5 cells (interaction with ACh); settings: whole-cell [3H]NMS binding, read-out: binding affinity pKB (converted)
T1 sequence (P08911 1-531): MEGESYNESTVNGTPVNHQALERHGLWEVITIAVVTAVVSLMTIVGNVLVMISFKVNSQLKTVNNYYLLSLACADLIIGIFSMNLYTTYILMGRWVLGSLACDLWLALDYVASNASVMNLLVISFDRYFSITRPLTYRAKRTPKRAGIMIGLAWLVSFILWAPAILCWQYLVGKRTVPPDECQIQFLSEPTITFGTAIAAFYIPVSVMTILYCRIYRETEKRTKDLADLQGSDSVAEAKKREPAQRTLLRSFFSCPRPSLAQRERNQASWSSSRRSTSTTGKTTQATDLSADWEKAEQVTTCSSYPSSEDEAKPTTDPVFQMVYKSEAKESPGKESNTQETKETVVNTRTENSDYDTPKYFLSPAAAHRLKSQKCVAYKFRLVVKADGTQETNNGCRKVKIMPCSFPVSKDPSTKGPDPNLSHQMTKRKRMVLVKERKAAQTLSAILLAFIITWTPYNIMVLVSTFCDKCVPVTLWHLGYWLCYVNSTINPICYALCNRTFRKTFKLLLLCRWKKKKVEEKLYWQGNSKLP
Protocol: (§1) Rat mAChR subtypes (rM1–rM5; Origene) and human cannabinoid 1 receptor (hCB1; ref. [24]) constructs were isogenically integrated into FlpIn CHO cells (Invitrogen) and cells were selected in the presence of […] hygromycin B at 37 °C, 5% CO2, as previously described for the human M1 mAChR [25]. All cells were sub-cultured and seeded as previously described for the CHO-hM5 cells.
(§2) [^3H]NMS equilibrium binding assays in CHO-rM1 to CHO-rM5 cells were performed as previously described for CHO-hM5 cells. For [^35S]GTPγS binding, CHO-rM2 and CHO-rM4 cell membranes were prepared as described in Supplementary information. Membrane [^35S]GTPγS binding was performed as described in ref [26]., except GDP and [^35S]GTPγS concentrations were 1 μM and 0.3 nM, respectively. [^3H](+)-pentazocine binding was performed as described in ref. [27].

rat M4 mAChR = molecular target: T2, rat M4 mAChR (Rattus norvegicus, UniProt P08485); assay: [3H]NMS equilibrium binding in whole CHO-rM4 cells; settings: rM4, [3H]NMS binding
T2 construct: host or cells: FlpIn CHO cells (Invitrogen)
T2 sequence (P08485 1-478): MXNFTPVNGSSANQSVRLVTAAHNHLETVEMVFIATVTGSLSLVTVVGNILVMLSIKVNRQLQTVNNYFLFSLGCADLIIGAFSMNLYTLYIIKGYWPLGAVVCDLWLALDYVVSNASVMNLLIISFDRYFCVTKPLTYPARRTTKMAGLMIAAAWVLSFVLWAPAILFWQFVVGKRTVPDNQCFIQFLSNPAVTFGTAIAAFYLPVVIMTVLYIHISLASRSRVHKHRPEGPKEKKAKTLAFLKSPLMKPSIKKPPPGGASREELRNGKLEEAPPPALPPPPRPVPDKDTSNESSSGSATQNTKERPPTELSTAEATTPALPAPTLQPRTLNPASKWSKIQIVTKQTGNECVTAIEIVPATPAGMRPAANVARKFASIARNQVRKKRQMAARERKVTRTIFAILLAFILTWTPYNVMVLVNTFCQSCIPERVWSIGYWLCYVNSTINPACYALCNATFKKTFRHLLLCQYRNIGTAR
Protocol: as §1, §2

rat M5 mAChR [2] = molecular target: T1, rat M5 mAChR; assay: ACh-stimulated IP accumulation (IP-One) in CHO-rM5 cells; assay type: cell-based
Protocol: (§3) The IP-One assay kit (Cisbio) was used for the direct quantitative measurement of inositol phosphate (IP) accumulation in CHO-rM1, CHO-rM3 or CHO-rM5 cells, as described previously. The CHO-hCB1 pERK1/2 assays were performed as described in ref [24].

[3] = molecular target: T3, human cannabinoid 1 receptor (hCB1) (Homo sapiens, UniProt P21554); assay: CHO-hCB1 ERK1/2 phosphorylation assay; assay type: cell-based
T3 construct: expressed in transfected cells; host or cells: FlpIn CHO cells (Invitrogen)
Protocol: as §1, §3
Sigma-1 data are expressed as a percentage of specific [^3H]-(+)-pentazocine binding; ERK1/2 phosphorylation data are expressed percentage of the response to 10% FBS. Data represent the mean ± S.E.M. of 5-7 independent experiments performed in duplicate or triplicate.

[4] = Rat pharmacokinetics (intraperitoneal or oral dosing); assay type: in vivo
Protocol: ML375 pharmacokinetics after either intraperitoneal or oral dosing of rats was determined as described in Supplementary information.

[5] = tested on: ethanol-preferring (iP) rats; assay: Operant sucrose self-administration, oral dosing; assay type: in vivo, rat; settings: 30 mg/kg p.o. x3
From the text: A separate cohort of rats were trained to self-administer sucrose (0.05–1% w/v). Rats underwent an identical dosing regimen of vehicle or ML375 before testing.

[6] = tested on: ethanol-preferring (iP) rats; assay: Cue-induced reinstatement of ethanol seeking; assay type: in vivo, rat; settings: 3 × 30 mg/kg p.o.
Protocol: A separate cohort of rats (n = 11) underwent 12 weeks of operant ethanol (10% v/v) self-administration followed by extinction training, where lever presses had no programmed consequences. Extinction occurred in the absence of CS+ and S+ cues. […] Subsequently, rats were tested for cue-induced reinstatement by re-introduction of the ethanol-paired CS+ and S+ cues, but in the absence of reward delivery. Rats were then re-extinguished and submitted to a second reinstatement session with the counterbalanced treatment.

[7] = tested on: ethanol-preferring (iP) rats; assay: Ethanol self-administration after bilateral microinjection into dorsolateral (DL) striatum; assay type: in vivo, rat; settings: intra-DL striatum, 105 pmol/hemisphere
From the text: Male iP rats (n = 14) were trained to self-administer 10% (v/v) ethanol via lever presses under FR3 operant conditions for approximately 12 weeks, in the presence of a 1-s light conditioned stimulus (CS+) occurring when the ethanol solution was delivered and an olfactory cue (S+ cue; one drop of vanilla essence, placed directly below the ethanol-paired (active) lever), as previously described, followed by surgery and testing. […] Rats were then given 7 days of ethanol self-administration before receiving the alternate treatment in a counterbalanced manner. For full details refer to Supplementary material.
Microinjections were performed as previously described; for full details see Supplementary material.

hM5 mAChR = settings: cited from earlier work
[8] = single 30 mg/kg oral dose, plasma

T3 sequence (P21554 whole entry): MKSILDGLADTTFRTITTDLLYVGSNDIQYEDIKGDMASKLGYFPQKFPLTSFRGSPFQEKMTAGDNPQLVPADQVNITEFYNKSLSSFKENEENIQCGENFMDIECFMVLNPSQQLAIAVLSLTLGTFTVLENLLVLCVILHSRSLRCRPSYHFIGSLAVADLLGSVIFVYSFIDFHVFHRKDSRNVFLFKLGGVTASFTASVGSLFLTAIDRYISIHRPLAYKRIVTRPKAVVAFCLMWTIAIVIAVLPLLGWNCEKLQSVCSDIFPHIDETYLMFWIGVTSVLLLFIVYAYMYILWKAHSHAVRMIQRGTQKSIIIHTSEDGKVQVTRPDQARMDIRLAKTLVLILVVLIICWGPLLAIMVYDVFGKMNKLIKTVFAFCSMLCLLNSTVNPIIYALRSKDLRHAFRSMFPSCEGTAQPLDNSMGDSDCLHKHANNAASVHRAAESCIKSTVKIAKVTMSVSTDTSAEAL

Structure (SMILES): O=C(c1ccc(F)c(F)c1)N1CCN2C(=O)c3ccccc3[C@@]12c1ccc(Cl)cc1 [ML375, (S)-9b-(4-chlorophenyl)-1-(3,4-difluorobenzoyl)-2,3-dihydro-1H-imidazo[2,1-a]isoi ndol-5(9bH)-one]
- Kb (rat M5 mAChR [1]): 355 nM
- effect on ACh affinity (rat M4 mAChR): no significant effects
- functional cooperativity between ML375 and ACh (rat M5 mAChR [2]; rM5): high negative cooperativity
- Kb (rat M5 mAChR [2]; read-out: functional affinity pKB (converted)): 155 nM
- effect in ERK1/2 phosphorylation assays ([3]; CHO-hCB1, concentrations up to 10 μM): no apparent effect
- agonist activity, ERK1/2 phosphorylation ([3]; FlpIn-CHO hCB1, agonist mode): no agonist activity
- inhibition of WIN 55212-2 (1µM)-stimulated ERK 1/2 phosphorylation ([3]; FlpIn-CHO hCB1, antagonist mode): failed to inhibit
- clearance ([4]; 20 mg/kg i.p., 24 h profile): low clearance
- terminal half-life ([4]; 20 mg/kg i.p., 24 h profile): long terminal half-life
- Kp at 24 h ([4]; brain and plasma, ip, 20 mg/kg i.p., 24 h timepoint, read-out: brain-to-plasma ratio): 3 ± 0.7
- Cmax [4, 8]: 4.7 ± 0.7 µM
- Tmax [4, 8]: 7 h
- sucrose responding vs vehicle ([5]; sucrose 0.05–1% w/v, P = 0.96): did not alter sucrose responding
- water responding vs vehicle ([5]; sucrose-trained rats, P = 1.0): no difference
- cue-induced reinstatement of ethanol seeking (active lever) vs vehicle ([6]; P = 0.015): significantly attenuated
- responding for the previously water-paired lever vs vehicle ([6]; P > 0.99): no differences
- responding for ethanol vs vehicle ([7]; P = 0.011): significantly reduced responding for ethanol
- responding for water vs vehicle ([7]; P > 0.99): no difference
- functional affinity pKB (hM5 mAChR): 6.22
